Source: patent US20240327787A1, “CULTURE MEDIUM, COATING MATRIX AND METHOD FOR EXPANDING MIDBRAIN DOPAMINERGIC PROGENITOR CELLS” (NUWACELL BIOTECHNOLOGIES CO., LTD., priority 2022, published 2024)

B1: VTN: vitronectin, first coating matrix that supports cell adhesion (protein, UniProt P04004 20-478, looked up)
Vitronectin: DQESCKGRCTEGFNVDKKCQCDELCSYYQSCCTDYTAECKPQVTRGDVFTMPEDEYTVYDDGEEKNNATVHEQVGGPSLTSDLQAQSKGNPEQTPVLKPEEEAPAPEVGASKPEGIDSRPETLHPGRPQPPAEEELCSGKPFDAFTDLKNGSLFAFRGQYCYELDEKAVRPGYPKLIRDVWGIEGPIDAAFTRINCQGKTYLFKGSQYWRFEDGVLDPDYPRNISDGFDGIPDNVDAALALPAHSYSGRERVYFFKGKQYWEYQFQHQPSQEECEGSSLSAVFEHFAMMQRDSWEDIFELLFWGRTSAGTRQPQFISRDWHGVPGQVDAAMAGRIYISGMAPRPSLAKKQRFRHRNRKGYRSQRGHSRGRNQNSRRPSRATWLSLFSSEESNLGANNYDDYRMDWLVPATCEPIQSVFFFSGDKYYRVNLRTRRVDTVDPPYPRSIAQYWLGCPAPGHL

Columns and labels:
Type in all cases: cell-based, human
imDAPs [1] = assay: imDAP expansion, cell morphology (bright-field); conditions: for attachment and morphology of imDAPs on coated surface (FIG. 4A): coating 1 μg/cm^2 each, day 4, Example 8 expansion medium
Experimental: imDAPs were produced according to the method described in CN201910169525.0. The imDAPs (P0) were seeded on VTN-coated plates (1 μg/cm^2) at a density of 1×10^5 cells/cm^2 in the expansion medium (50% DMEM/F12, 50% Neurobasal™ medium, 1% (v/v) Glutamax, 2% (v/v) B27 (50×), 0.2 μM LDN193189, 3 μM CHIR99021, 100 ng/mL FGF8b) in the absence or presence of 5 μM Blebbistatin. In case where Blebbistatin is present, Blebbistatin was either removed 24 hrs after plating or present throughout the culture period. The medium was changed every day for 5 days.
imDAPs were produced according to the method described in CN201910169525.0. The imDAPs (P0) were seeded on VTN-coated plates (1 μg/cm^2) at a density of 1×10^5 cells/cm^2 in the expansion medium (50% DMEM/F12, 50% Neurobasal™ medium, 1% (v/v) Glutamax, 2% (v/v) B27 (50×), 3 μM CHIR99021, 100 ng/mL FGF8b, 5 μM Blebbistatin) in the absence or presence of 0.2 μM LDN193189. The medium was changed every day for 5 days.
(§1) imDAPs were produced according to the method described in CN201910169525.0. The imDAPs (P0) were seeded on DLL4-coated (1 μg/cm^2), VTN-coated (1 μg/cm^2) and DLL4/VTN-coated (1 μg/cm^2 for each) plates at a low density of 1×10^4 cells/cm^2 respectively, and cultured in the expansion medium in the absence or presence of 5 μM SB431542. Medium was replaced every 3rd day until reaching 100% confluence (6 days) for cell collection. The typical cell morphology on day 4 was recorded (FIG. 4A). The cell number of each group was counted by Vi-cell cytometer (FIG. 4B). The cells of each group were stained with Foxa2-PE antibody (BD, #561589), the percentage of Foxa2+ imDAPs were analyzed by flow cytometry (FIG. 4C). The expansion medium used in this example contained the following components: 50% DMEM/F12, 50% Neurobasal™ medium, 1% (v/v) Glutamax, 1% (v/v) B27, 50 μg/ml ascorbic acid, 0.2 μM LDN193189, 100 ng/ml FGF8b, 3 μM CHIR99021 and 10 µM Y27632.
(§2) imDAPs were produced according to the method described in CN201910169525.0. The imDAPs (P0) were seeded on DLL4/VTN-coated (1 μg/cm^2 for each) plates at a low density of 1×10^4 cells/cm^2, and cultured in the expansion medium (EM1, EM2, EM3, EM4). Medium was replaced every 3rd day until reaching 100% confluence (6 days) for cell collection. EM1 used in Example 9 contained the following components: 50% DMEM/F12, 50% Neurobasal™ medium, 1% (v/v) Glutamax, 1% (v/v) B27 (50×), 50 μg/ml ascorbic acid, 3 μM CHIR99021, 5 μM SB431542 and 10 μM Y27632. EM2 used in Example 9 contained the following components: 50% DMEM/F12, 50% Neurobasal™ medium, 1% (v/v) Glutamax, 1% (v/v) B27 (50×), 50 μg/ml ascorbic acid, 0.2 μM LDN193189, 3 μM CHIR99021, 5 μM SB431542 and 10 μM Y27632. EM3 used in Example 9 contained the following components: 50% DMEM/F12, 50% Neurobasal™ medium, 1% (v/v) Glutamax, 1% (v/v) B27 (50×), 50 μg/mL ascorbic acid, 0.2 μM LDN193189, 100 ng/ml FGF8b, 3 μM CHIR99021, 5 μM SB431542 and 10 μM Y27632. EM4 used in Example 9 contained the following components: 50% DMEM/F12, 50% Neurobasal™ medium, 1% (v/v) Glutamax, 1% (v/v) B27 (50×), 50 μg/ml ascorbic acid, 0.2 μM LDN193189, 10 ng/ml FGF2, 3 μM CHIR99021, 5 μM SB431542 and 10 μM Y27632.

imDAPs [2] = assay: imDAP expansion efficiency (cell number, expansion fold, Population Doubling Time); conditions: DLL4/VTN-coated; for imDAP expansion, overall conclusion of Example 9: added to CHIR99021/SB431542/Y27632 medium
Experimental: imDAPs were produced according to the method described in CN201910169525.0. The imDAPs (P0) were seeded on VTN-coated plates (1 μg/cm^2) at a density of 1×10^5cells/cm^2 in the expansion medium (50% DMEM/F12, 50% Neurobasal™ medium, 1% (v/v) Glutamax, 2% (v/v) B27 (50×), 0.2 μM LDN193189, 3 μM CHIR99021, 100 ng/mL FGF8b, 5 μM Blebbistatin). The medium was changed every day. When imDAPs reach 100% confluence (4-5 days), cells were passaged enzymatically with 1× TrypLE, centrifuged at 250 g for 5 minutes, counted and replaced on new VTN-coated plates (1 μg/cm^2) at a density of 1×10^5 cells/cm^2 in the expansion medium. imDAPs were continuously expanded for 6 passages. At each passage, imDAPs were harvested at an expansion fold 5˜10 (over the initial number of imDAPs plated).
as §1, with “The expansion medium used in this example contained the following components: 50% DMEM/F12, 50% Neurobasal™ medium, 1% (v/v) Glutamax, 1% (v/v) B27, 50 μg/ml ascorbic acid, 0.2 μM LDN193189, 100 ng/ml FGF8b, 3 μM CHIR99021 and 10 µM Y27632.” left out
imDAPs were produced according to the method described in CN201910169525.0. […] Medium was replaced every 3rd day until reaching 100% confluence (6 days) for cell passaging. imDAPs were passaged enzymatically with 1× TrypLE, centrifuged at 250 g for 5 minutes, counted and plated on new DLL4/VTN-coated plates at a density of 1×10^4 cells/cm^2 in the expansion medium. imDAPs were expanded and maintained in the expansion medium for 6 passages. […]

imDAPs [3] = assay: Flow cytometry analysis of FOXA2 expression in expanded imDAPs; conditions: for FOXA2 expression, FACS (FIG. 4C): VTN or DLL4+VTN coating, with or without 5 μM SB431542, 6 days
Experimental: 1. Individualize and collect cells by either Accutase or TrypLE treatment.
2. Wash cells with 1 ml PBS and pellet cells at 250×g for 15 sec.
3. Remove supernatant, add ˜200 μl of 4% PFA, mix and fix for 10 min at RT.
4. Pellet cells at 350×g for 5 min.
5. Wash cells by 1 ml of FACS buffer and pellet cells at 350×g for 5 min.
6. Remove supernatant, add 200 μl/tube of FACS buffer/0.1% TritonX, mix for 10 min at RT.
7. Wash cells by 1 ml of FACS buffer and pellet cells at 350×g for 5 min.
8. Remove supernatant, add 200 μl/tube of primary antibody diluted in FACS buffer, mix gently, and incubate for 30 min at RT.
9. Wash cells by 1 ml of FACS buffer and pellet cells at 350×g for 5 min.
10. Remove supernatant, and add 200 μl of secondary antibody diluted in FACS buffer, mix gently, and incubate for 30 min at RT.
11. Wash cells by 1 ml of FACS buffer and pellet cells at 300×g for 5 min.
12. Remove supernatant, add 200 μl of FACS buffer, and run samples on the flow cytometry.
imDAPs were produced according to the method described in CN201910169525.0. The imDAPs (P0) were seeded on VTN-coated plates (1 μg/cm^2) at a low density of 1×10^4 cells/cm^2, and cultured in the expansion medium (50% DMEM/F12, 50% Neurobasal™ medium, 1% (v/v) Glutamax, 2% (v/v) B27 (50×), 0.2 μM LDN193189, 3 μM CHIR99021, 100 ng/mL FGF8b) with either 5 μM Blebbistatin or 10 μM Y27632. Medium was replaced every 3rd day. At Day 6, cells were collected for FACS analysis.
as §1
as §2, with “EM4 used in Example 9 contained the following components: 50% DMEM/F12, 50% Neurobasal™ medium, 1% (v/v) Glutamax, 1% (v/v) B27 (50×), 50 μg/ml ascorbic acid, 0.2 μM LDN193189, 10 ng/ml FGF2, 3 μM CHIR99021, 5 μM SB431542 and 10 μM Y27632.” left out

Row | Molecule | imDAP expansion, overall conclusion of Example 9 (imDAPs [2]) | attachment and morphology of imDAPs on coated surface (FIG. 4A) (imDAPs [1]) | FOXA2 expression, FACS (FIG. 4C) (imDAPs [3]) | also measured
1 | Cc1ccc2c(c1)C(=O)C1(O)CCN(c3ccccc3)C1=N2 (centres unmarked) [Blebbistatin] | – | – | – | imDAP expansion (cell morphology, FIG. 1A) (imDAPs [1]; 5 μM Blebbistatin throughout culture vs absent or removed 24 hrs after plating, VTN-coated plates, 5 days, P0 imDAPs): supported better imDAP expansion
2 | FGF2: fibroblast growth factor | had no additional effects on imDAP expansion | – | – | cell morphology on day 5 (FIG. 5A) (imDAPs [1]; 10 ng/ml FGF2 (with 0.2 μM LDN193189) in expansion medium EM4, DLL4/VTN-coated): some obvious heterogeneous cells were observed
3 | DLL4: Notch agonist Delta-Like 4, used as coating matrix | – | could not support the attachment of imDAPs | could improve FOXA2 expression | –
4 | c1ccc2c(-c3cnn4cc(-c5ccc(N6CCNCC6)cc5)cnc34)ccnc2c1 [LDN193189] | had no additional effects on imDAP expansion | – | – | cell morphology of expanded imDAPs (FIG. 1B) (imDAPs [1]; absence vs presence of 0.2 μM LDN193189, VTN-coated, 5 days): imDAPs cultured without LDN193189 showed more flattened morphology; cell number during expansion (FIG. 5B) (imDAPs [2]; adding 0.2 μM LDN193189 and/or 100 ng/ml FGF8b to CHIR99021/SB431542/Y27632 medium, 6 days): had no additional effect on increasing the cell number; expression of FOXA2 for imDAPs, flow cytometry (FIG. 5C) (imDAPs [3]; addition of 100 ng/ml FGF8b and/or 0.2 μM LDN193189, DLL4/VTN-coated, P1 cells): slightly decreased the expression of FOXA2
5 | NC(=O)c1ccc(-c2nc(-c3ccc4c(c3)OCO4)c(-c3ccccn3)[nH]2)cc1 [SB431542] | – | – | could improve FOXA2 expression | –
6 | B1 | – | flattened morphology | – | –
